Measurements from patent US8642630B2, “Endogeneous repair factor production accelerators” (Ono Pharmaceutical Co., Ltd., priority 2002, dated 2014).

Assays:
HGF = assay: Endogenous repair factor protein producing action (in vitro), HGF by ELISA, Example 2; assay type: cell-based, human; conditions: 10^-7 mol/l
Method: (§1) An angiogenesis kit (manufactured by Kurabo; constituted from normal human umbilical cord vein vascular endothelial cells and normal human skin fibroblasts) was cultured for 3 hours, and then the culture medium (the medium for angiogenesis use attached to the angiogenesis kit was used as the culture medium and cultured at 37° C. under a moist environment of 5% carbon dioxide-95% air, and a carbon dioxide incubator BNA-121D was used as the incubator) was changed and an agent to be tested was added to each well (0.5 ml/well). The agent to be tested were solvent (DMSO) 0.1% and Compound 1 10^−7 mol/l, and the culturing was carried out by using 3 wells for each. Culture supernatants were collected before commencement of the culturing and 1, 2, 6, 24, 48 and 72 hours after the commencement. HGF and VEGF protein concentrations in the culture supernatants were measured by using an ELISA kit (R % D system-Funakoshi).
(§2) As the agent to be tested, Compound 1 ((E)-[5-[2-[1-phenyl-1-(3-pyridyl)methylideneaminoxy]ethyl]-7,8-dihydronaphthalen-1-yloxy]acetic acid) was dissolved in dimethyl sulfoxide (DMSO) to prepare 10^−4 mol/l solution which was then used by diluting 1/1000 time with the culture medium.
(§3) Results of the solvent control wells were compared with those of the wells treated with the agent to be tested by Dunnett's test (two-sided test). The significance level was set to 5%. […]

[1] = system: mouse sponge transplantation model; assay: Angiogenesis test using mouse sponge transplantation model, Example 8; assay type: in vivo; conditions: for Hemoglobin content / Sponge wet weight: 15th day; for hemoglobin concentration in the granulation tissue, in words: vs polymer group
Method: Under anesthesia, dorsal part of a mouse was incised and a discus urethane sponge (about 5 mm in thickness and 13 mm in diameter) was embedded therein. Administration of the agent was carried out by topically administering it directly into the sponge once a day for a total of 14 times starting on the day of the sponge transplantation model preparation, or on the operation-completed day and 7th day thereafter. On the 15th day after the sponge transplantation, the sponge containing granulation tissue was extracted and observed with the naked eye, and then its wet mass was measured. In addition, this was mixed with distilled water of 4 times larger amount than the wet mass, homogenized and centrifuged, and then the supernatant was subjected to the measurement of the hemoglobin content using Hemoglobin 13-Test Wako (manufactured by Wako Pure Chemical Industries).
• The polylactic acid-glycolic acid copolymer used in Preparation Example 2 was suspended in 0.2 w/v % Tween 80 solution (0.05 ml). In this connection, amount of the polylactic acid-glycolic acid copolymer is identical to the amount contained in Compound 1 MS (200 μg). Compound 1 (20 μg) Group: • Compound 1 (20 μg) was suspended in 0.2 w/v % Tween 80 solution (0.05 ml). Compound 1 (40 μg) Group:
Compound 1 (40 μg) was suspended in 0.2 w/v % Tween 80 solution (0.05 ml).
• Compound 1 (200 μg) was suspended in 0.2 w/v % Tween 80 solution (0.05 ml). Compound 1 MS (200 μg) group: • The microsphere preparation produced in Preparation Example 2 containing […] of Compound 1 was suspended in 0.2 w/v % Tween 80 solution (0.05 ml). Compound 1 MS (400 μg) Group: • The microsphere preparation produced in Preparation Example 2 containing 400 μg of Compound 1 was suspended in 0.2 w/v % Tween 80 solution (0.05 ml). Compound 3 (20 μg) Group: • Compound 3 (20 μg) was suspended in 0.2 w/v % Tween 80 solution (0.05 ml).

VEGF = assay: Endogenous repair factor protein producing action (in vitro), VEGF by ELISA, Example 2; assay type: cell-based, human; conditions: 10^-7 mol/l
Method: as §1, §2, §3

[2] = system: normal human umbilical cord vein vascular endothelial cells and normal human skin fibroblasts; assay: Measurement of angiogenesis acceleration action (in vitro), hollow organ formation, Example 1; assay type: cell-based
Method: An angiogenesis kit (manufactured by Kurabo; constituted from normal human umbilical cord vein vascular endothelial cells and normal human skin fibroblasts) was cultured for 3 hours, and then the culture medium (the medium for angiogenesis use attached to the angiogenesis kit was used as the culture medium and cultured at 37° C. under a moist environment of 5% carbon dioxide-95% air, and a carbon dioxide incubator BNA-121D was used as the incubator) was changed and an agent to be tested was added to each well (0.5 ml/well). The medium exchange was carried out also on the 3rd, 6th and 8th days after commencement of the culturing and the fresh agent to be tested was added. The kind and concentration of the agent to be tested were untreated, solvent (DMSO) 0.1%, Compound 1 10^−9, 10^−8 and 10^−7 mol/l, VEGF-A 0.1, 1 and 10 ng/ml and HGF 0.1, 1 and 10 ng/ml, and the culturing was carried out by using 3 wells for each concentration. Fixation was carried out 10 days after the commencement of culturing, and staining of hollow organ with anti-CD31 antibody was carried out by using a hollow organ staining kit (manufactured by Kurabo). As the evaluation, Chalkley Grid (a grid lens, manufactured by Kurabo) was mounted on the eyepiece of a microscope, and the hollow organ formation was evaluated by counting intersections of the randomly arrange points of Chalkley Grid with the formed hollow organ (by referring to the evaluation method of J. Pathol., 177, 275-283 (1995)). The counting was carried out at 12 positions per well, and the total was calculated.
As the agent to be tested, Compound 1 ((E)-[5-[2-[1-phenyl-1-(3-pyridyl)methylideneaminoxy]ethyl]-7,8-dihydronaphthalen-1-yloxy]acetic acid) was dissolved in dimethyl sulfoxide (DMSO) to prepare 10^−4, 10^−5 and 10^−6 mol/l solutions which were then used by diluting 1/1000 time with the culture medium.
As the VEGF-A (vascular endothelial growth factor-A), the 2 μg/ml solution of VEGF contained in the angiogenesis control reagent kit of Kurabo was diluted with the culture medium and used. […]

[3] = 72 hours of culturing, vs solvent control
[4] = after 72 hours of culturing, average of 3 wells ± SD
[5] = 20 μg into the sponge once a day, 14 days of repeated administration
[6] = 40 μg into the sponge once a day, 14 days of repeated administration
[7] = 200 μg into the sponge, two administrations at 7 day intervals

Compound: O=C(O)COc1cccc2c1CCC=C2CCO/N=C(\c1ccccc1)c1cccnc1 [Compound 1, (E)-[5-[2-[1-phenyl-1-(3-pyridyl)methylideneaminoxy]ethyl]-7,8-dihydronaphthalen-1-yloxy]acetic acid]
- production of HGF protein, in words (HGF; [3]): accelerated production of HGF protein and VEGF protein statistically significantly
- HGF protein concentration in culture supernatant (HGF; [4]): 518 ± 15 pg/mL
- Hemoglobin content [1, 5]: 2.403 ± 0.533 mg/g wet tissue
- Sponge wet weight [1, 5]: 0.3843 ± 0.0681 g
- hemoglobin concentration in the granulation tissue, in words ([1]; 20 μg, 14 days of repeated administration): showed an increasing tendency, but is not a significant increase
- Hemoglobin content [1, 6]: 3.010 ± 0.808 mg/g wet tissue
- Sponge wet weight [1, 6]: 0.5136 ± 0.0938 g
- hemoglobin concentration in the granulation tissue, in words ([1]; 40 μg, 14 days of repeated administration): showed an increasing tendency, but is not a significant increase
- Hemoglobin content [1, 7]: 1.964 ± 0.289 mg/g wet tissue
- Sponge wet weight [1, 7]: 0.4123 ± 0.0320 g
- hemoglobin concentration in the granulation tissue, in words ([1]; 200 μg, two administrations at 7 day intervals): did not increase
- production of VEGF protein, in words (VEGF; [3]): accelerated production of HGF protein and VEGF protein statistically significantly
- VEGF protein concentration in culture supernatant (VEGF; [4]): 3034 ± 30 pg/mL
- hollow organ formation (Chalkley Grid count), in words ([2]; 10^-8 and 10^-7 mol/l, 10 days of culturing, vs untreated wells, Dunnett's test, FIG. 1): accelerated hollow organ formation statistically significantly
- angiogenesis accelerating effect, strength compared with positive control agents ([2]; co-culture system of human vascular endothelial cells and human fibroblasts): strength equivalent to the positive control agents VEGF-A and HGF
